Results taken from patent US20040067592A1, “Process for controlling microbial contamination of polymeric emulsions using carbon dioxide detection” (priority 2002, published 2004).
Counter-ions that a name gives are not always drawn.

Tests used:
[1] = test system: Gluconoacetobacter liquefaciens; assay: Headspace carbon dioxide concentration over inoculated AIRFLEX 400 emulsion after biocide addition; type: cell-based
Source text: Sterile AIRFLEX® 400 (1600 grams) poly(vinyl alcohol) stabilized vinyl acetate/ethylene polymeric emulsion was placed in a 2L plastic Nalgene container. The plastic cover was modified with two ports. The first port was used to mount and insert the carbon dioxide sensor and the second, much smaller diameter port was left open to the atmosphere to permit venting and a constant pressure within the container. A Vaisala GMT222 direct reading carbon dioxide transmitter connected to a data logger and computer was used as the measuring device. The cover was then screwed on tightly and the headspace carbon dioxide concentration measured over the course of 3 days. During this entire monitoring period the headspace carbon dioxide concentration remained steady at approximately 400 ppm.
(§1) In an effort to determine the efficacy of carbon dioxide measurement as a detection mechanism for microbial growth, AIRFLEX 400 (1600 grams) poly(vinyl alcohol) stabilized (some biocide present) vinyl acetate/ethylene polymeric emulsion was inoculated with Gluconoacetobacter liquefaciens. The resulting concentration of Gluconoacetobacter liquefaciens in the Airflex 400 emulsion was measured via a dilution plate count on potato dextrose agar and found to be 5.4×10^4 cfu/ml. The contaminated emulsion was placed in a 2L plastic Nalgene container. The modified cover, equipped with the carbon dioxide sensor and vent hole, described in Example 1 was tightly screwed on. The headspace carbon dioxide level began rising above background (˜400 ppm) within a matter of minutes. After continually monitoring this sample for 2 days, the headspace carbon dioxide concentration leveled out at about 1600 ppm.
To the same contaminated sample described in Example 2 was added 400 ppm of dodecylguanidine hydrochloride (DGH) biocide to reduce the Gluconoacetobacter liquefaciens concentration.
(§2) The sample was then monitored for headspace carbon dioxide concentration as described in Examples 1 and 2. After continually monitoring this sample for 2 days the headspace carbon dioxide concentration leveled out at about 1150 ppm. A sample of the AIRFLEX 400 poly(vinyl alcohol) stabilized vinyl acetate/ethylene polymeric emulsion was removed from the container and the concentration of Gluconoacetobacter liquefaciens was measured on potato dextrose agar using a dilution plate count method.
as §2, with “To the same contaminated sample described in Example 3 was added an additional 375 ppm DGH to further reduce the Gluconoacetobacter liquefaciens concentration. The” for “The”, “for 3” for “for 2”, “about 1000” for “about 1150”
as §2, with “To the same contaminated sample described in Example 4 was added an additional 350 ppm DGH to further reduce the Gluconoacetobacter liquefaciens concentration. The” for “The”, “for 3” for “for 2”, “about 800” for “about 1150”, “400” for “400 poly(vinyl alcohol) stabilized vinyl acetate/ethylene polymeric”

[2] = test system: Gluconoacetobacter liquefaciens; assay: Dilution plate count on potato dextrose agar of inoculated AIRFLEX 400 emulsion after biocide addition; type: cell-based
Protocol: as §1, §2
as §2, with “To the same contaminated sample described in Example 3 was added an additional 375 ppm DGH to further reduce the Gluconoacetobacter liquefaciens concentration. The” for “The”, “for 3” for “for 2”, “about 1000” for “about 1150”
as §2, with “To the same contaminated sample described in Example 4 was added an additional 350 ppm DGH to further reduce the Gluconoacetobacter liquefaciens concentration. The” for “The”, “for 3” for “for 2”, “about 800” for “about 1150”, “400” for “400 poly(vinyl alcohol) stabilized vinyl acetate/ethylene polymeric”

[3] = Example 3, biocide 400 ppm, time 24 hour
[4] = Example 4, biocide 375 ppm (additional), time 96 hour
[5] = Example 5, biocide 350 ppm (additional), time 96 hour

SMILES: CCCCCCCCCCCCNC(=N)N [DGH, dodecylguanidine hydrochloride]
- headspace carbon dioxide concentration leveled out ([1]; Example 3: 400 ppm DGH added to contaminated AIRFLEX 400 (5.4×10^4 cfu/ml, 1600 ppm CO2 before), monitored 2 days, background ~400 ppm): about 1150 ppm
- CO2 [1, 3]: 1150 ppm
- headspace carbon dioxide concentration leveled out ([1]; Example 4: additional 375 ppm DGH added to Example 3 sample (400 ppm DGH), monitored 3 days): about 1000 ppm
- CO2 [1, 4]: 1000 ppm
- headspace carbon dioxide concentration leveled out ([1]; Example 5: additional 350 ppm DGH added to Example 4 sample (400 + 375 ppm DGH), monitored 3 days): about 800 ppm
- CO2 [1, 5]: 800 ppm
- Gluconoacetobacter liquefaciens contamination level ([2]; Example 3: 400 ppm DGH added to contaminated AIRFLEX 400 (5.4×10^4 cfu/ml before), after 2 days): 1.30×10^4 cfu/ml
- Contamination [2, 3]: 1.3 × 10^4 CFU/ml
- Gluconoacetobacter liquefaciens contamination level ([2]; Example 4: additional 375 ppm DGH added to Example 3 sample (400 ppm DGH), after 3 days): 4.40×10^3 cfu/ml
- Contamination [2, 4]: 4.4 × 10^3 CFU/ml
- Gluconoacetobacter liquefaciens contamination level ([2]; Example 5: additional 350 ppm DGH added to Example 4 sample (400 + 375 ppm DGH), after 3 days): 3.20×10^2 cfu/ml
- Contamination [2, 5]: 3.2 × 10^2 CFU/ml
